{"source": "patent US11780839B2", "about": "“Compounds for treating Huntington's disease” (PTC THERAPEUTICS, INC., priority 2018, dated 2023)"}
{"tested_on": "Endogenous Huntingtin Protein", "assay": "Endogenous Huntingtin Protein Assay (ELISA-based Meso Scale Discovery electrochemiluminescence)", "format": "cell-based", "conditions": "MSD electrochemiluminescence, Table 1", "experimental": "Compounds of Formula (I) or Formula (II) were tested using the Meso Scale Discovery (MSD) Assay provided in International Application No. PCT/US2016/066042, filed on Dec. 11, 2016 and claiming priority to U.S. Provisional Application 62/265,652 filed on Dec. 10, 2015, the entire contents of which are incorporated herein by reference.\nThe Endogenous Huntingtin Protein assay used in Example 1 was developed using the ELISA-based MSD electrochemiluminescence assay platform.\nEndogenous Huntingtin Protein Assay\nMeso Scale Discovery (MSD) 96-well or 384-well plates were coated overnight at 4° C. with MW1 (expanded polyglutamine) or MAB2166 monoclonal antibody (for capture) at a concentration of 1 μg/mL in PBS (30 μL per well). Plates were then washed three times with 300 μL wash buffer (0.05% Tween-20 in PBS) and blocked (100 μL blocking buffer; 5% BSA in PBS) for 4-5 hours at room temperature with rotational shaking and then washed three times with wash buffer.\nSamples (25 μL) were transferred to the antibody-coated MSD plate and incubated overnight at 4° C. After removal of the lysates, the plate was washed three times with wash buffer, and 25 μL of #5656S (Cell signaling; rabbit monoclonal) secondary antibody (diluted to 0.25 μg/mL in 0.05% Tween-20 in blocking buffer) was added to each well and incubated with shaking for 1 Hour at room temperature. Following incubation with the secondary antibody, the wells were rinsed with wash buffer after which 25 μL of goat anti-rabbit SULFO TAG secondary detection antibody (required aspect of the MSD system) (diluted to 0.25 μg/mL in 0.05% Tween-20 in blocking buffer) was added to each well and incubated with shaking for 1 hour at room temperature. After rinsing three times with wash buffer, 150 μL of read buffer T with surfactant (MSD) were added to each empty well, and the plate was imaged on a SI 6000 imager (MSD) according to manufacturers' instructions provided for 96- or 384-well plates.", "units": {"IC50": "nM"}}
{"smiles": "Oc1cc(-c2cn[nH]c2)ccc1-c1cnc(N2CCC(NC34CC(C3)C4)C2)nn1", "note": "(stereo not drawn) [Cpd 349, 2-(3-{3-[(bicyclo[1.1.1]pentan-1-yl)amino]pyrrolidin-l-yl}-1,2,4-triazin-6-yl)-5-(1H-pyrazol-4-yl)phenol]", "IC50": "100 to 500"}
{"smiles": "Cn1ncc2cc(-c3ccc(-c4cnc(N[C@H]5CC(C)(C)NC(C)(C)[C@H]5F)nn4)c(O)c3)ccc21", "note": "[Cpd 260, 2-(3-{[(3S,4S)-3-fluoro-2,2,6,6-tetramethylpiperidin-4-yl]amino}-1,2,4-triazin-6-yl)-5-(1-methyl-1H-indazol-5-yl)phenol]", "IC50": "≤ 100"}
{"smiles": "Cc1cn(-c2ccc(-c3cnc(N4CCC(NC(C)(C)C)C4)nn3)c(O)c2)cn1", "note": "(stereo not drawn) [Cpd 197, 2-{3-[3-(tert-butylamino)pyrrolidin-l-yl]-1,2,4-triazin-6-yl}-5-(4-methyl-1H-imidazol-1-yl)phenol]", "IC50": "100 to 500"}
{"smiles": "[2H]C([2H])([2H])n1cc(-c2ccc(-c3cnc(N4CCC(NC(C)(C)C)C4)nn3)c(O)c2)cn1", "note": "(stereo not drawn) [Cpd 367, 2-{3-[3-(tert-butylamino)pyrrolidin-l-yl]-1,2,4-triazin-6-yl}-5-[1-(^2H3)methyl-1H-pyrazol-4-yl]phenol]", "IC50": "≤ 100"}
{"smiles": "CN(c1ncc(-c2ccc(-c3cn[nH]c3)cc2O)nn1)C1C[C@H]2CCC[C@@H](C1)N2C", "note": "(stereo partly drawn) [Cpd 87, 2-(3-{methyl[(1R,3s,5S)-9-methyl-9-azabicyclo[3.3.1]nonan-3-yl]amino}-1,2,4-triazin-6-yl)-5-(1H-pyrazol-4-yl)phenol]", "IC50": "≤ 100"}
{"smiles": "CNc1cc(-c2ccc(-c3cnc(N4CCC(NC)C4)nn3)c(O)c2)ncn1", "note": "(stereo not shown) [Cpd 380, 5-[6-(methylamino)pyrimidin-4-yl]-2-{3-[3-(methylamino)pyrrolidin-1-yl]-1,2,4-triazin-6-yl}phenol]", "IC50": "≤ 100"}
{"smiles": "CC(C)(C)N[C@@H]1CCN(c2ncc(-c3ccc(-c4cn[nH]c4)cc3O)nn2)C1", "note": "[Cpd 356, 2-{3-[(3R)-3-(tert-butylamino)pyrrolidin-l-yl]-1,2,4-triazin-6-yl}-5-(1H-pyrazol-4-yl)phenol]", "IC50": "≤ 100"}
{"smiles": "CC(C)NC1CCN(c2ncc(-c3ccc(-c4ccn(C)c(=O)c4)cc3O)nn2)C1", "note": "(stereo not shown) [Cpd 227, 4-[3-hydroxy-4-(3-{3-[(propan-2-yl)amino]pyrrolidin-1-yl}-1,2,4-triazin-6-yl)phenyl]-1-methylpyridin-2(1H)-one]", "IC50": "≤ 100"}
{"smiles": "Cc1n[nH]cc1-c1ccc(-c2cnc(N(C)C3CC(C)(C)NC(C)(C)C3)nn2)c(O)c1", "note": "[Cpd 6, 5-(3-methyl-1H-pyrazol-4-yl)-2-{3-[methyl(2,2,6,6-tetramethylpiperidin-4-yl)amino]-1,2,4-triazin-6-yl}phenol]", "IC50": "≤ 100"}
{"smiles": "Cc1cn2nc(-c3ccc(-c4cnc(N(C)C5CC(C)(C)NC(C)(C)C5)nn4)c(O)c3)ccc2n1", "note": "[Cpd 142, 5-(2-methylimidazo[1,2-b]pyridazin-6-yl)-2-{3-[methyl(2,2,6,6-tetramethylpiperidin-4-yl)amino]-1,2,4-triazin-6-yl}phenol]", "IC50": "≤ 100"}
{"smiles": "CC1CC(Oc2ncc(-c3ccc(-c4cn[nH]c4)cc3O)nn2)CC(C)N1", "note": "(stereo not shown) [Cpd 82, 2-{3-[(2,6-dimethylpiperidin-4-yl)oxy]-1,2,4-triazin-6-yl}-5-(1H-pyrazol-4-yl)phenol]", "IC50": "100 to 500"}
{"smiles": "Cc1nnc(-c2ccc(-c3cnc(N(C)C4CC(C)(C)NC(C)(C)C4)nn3)c(O)c2)o1", "note": "[Cpd 81, 5-(5-methyl-1,3,4-oxadiazol-2-yl)-2-{3-[methyl(2,2,6,6-tetramethylpiperidin-4-yl)amino]-1,2,4-triazin-6-yl}phenol]", "IC50": "≤ 100"}
{"smiles": "CC(C)(C)N[C@H]1CCN(c2ncc(-c3ccc(-c4cn[nH]c4)cc3O)nn2)C1", "note": "[Cpd 355, 2-{3-[(3S)-3-(tert-butylamino)pyrrolidin-l-yl]-1,2,4-triazin-6-yl}-5-(1H-pyrazol-4-yl)phenol]", "IC50": "≤ 100"}
{"smiles": "Oc1cc(-c2cn[nH]c2)ccc1-c1cnc(N2CC[C@@H](CNC3CCOCC3)C2)nn1", "note": "[Cpd 397, 2-{3-[(3S)-3-{[(oxan-4-yl)amino]methyl}pyrrolidin-1-yl]-1,2,4-triazin-6-yl}-5-(1H-pyrazol-4-yl)phenol]", "IC50": "≤ 100"}
{"smiles": "Oc1cc(-c2cn[nH]c2)ccc1-c1cnc(N2CCC(NC3CCOCC3)C2)nn1", "note": "(stereo not shown) [Cpd 335, 2-(3-{3-[(oxan-4-yl)amino]pyrrolidin-1-yl}-1,2,4-triazin-6-yl)-5-(1H-pyrazol-4-yl)phenol]", "IC50": "≤ 100"}
{"smiles": "CN(C)[C@H]1CC[C@@H]2CN(c3ncc(-c4ccc(-c5cn[nH]c5)cc4O)nn3)C[C@@H]21", "note": "[Cpd 167, 2-{3-[(3aR,4S,6aS)-4-(dimethylamino)hexahydrocyclopenta[c]pyrrol-2(1H)-yl]-1,2,4-triazin-6-yl}-5-(1H-pyrazol-4-yl)phenol]", "IC50": "≤ 100"}
{"smiles": "CN(c1ncc(-c2ccc(-n3cc(F)cn3)cc2O)nn1)C1CC(C)(C)NC(C)(C)C1", "note": "[Cpd 93, 5-(4-fluoro-1H-pyrazol-1-yl)-2-{3-[methyl(2,2,6,6-tetramethylpiperidin-4-yl)amino]-1,2,4-triazin-6-yl}phenol]", "IC50": "≤ 100"}
{"smiles": "CC(C)NC1CCN(c2ncc(-c3ccc(-c4cn5ccnc5cn4)cc3O)nn2)C1", "note": "(stereo not shown) [Cpd 283, 5-(imidazo[1,2-a]pyrazin-6-yl)-2-(3-{3-[(propan-2-yl)amino]pyrrolidin-1-yl}-1,2,4-triazin-6-yl)phenol]", "IC50": "1000 to 3000"}
{"smiles": "Cn1nnc(-c2ccc(-c3cnc(N[C@H]4CC(C)(C)NC(C)(C)[C@H]4F)nn3)c(O)c2)n1", "note": "[Cpd 291, 2-(3-{[(3S,4S)-3-fluoro-2,2,6,6-tetramethylpiperidin-4-yl]amino}-1,2,4-triazin-6-yl)-5-(2-methyl-2H-tetrazol-5-yl)phenol]", "IC50": "≤ 100"}
{"smiles": "Oc1cc(-c2cn[nH]c2)ccc1-c1cnc(N2CCC(CNC3CC3)C2)nn1", "note": "(stereo not shown) [Cpd 392, 2-(3-{3-[(cyclopropylamino)methyl]pyrrolidin-1-yl}-1,2,4-triazin-6-yl)-5-(1H-pyrazol-4-yl)phenol]", "IC50": "≤ 100"}
{"smiles": "CN(c1ncc(-c2ccc(-c3cnn(C)c(=O)c3)cc2O)nn1)C1CC(C)(C)NC(C)(C)C1", "note": "[Cpd 147, 5-(3-hydroxy-4-{3-[methyl(2,2,6,6-tetramethylpiperidin-4-yl)amino]-1,2,4-triazin-6-yl}phenyl)-2-methylpyridazin-3(2H)-one]", "IC50": "≤ 100"}
{"smiles": "CN(c1ncc(-c2ccc(-c3cnc4[nH]ncc4c3)cc2O)nn1)C1CC(C)(C)NC(C)(C)C1", "note": "[Cpd 132, 2-{3-[methyl(2,2,6,6-tetramethylpiperidin-4-yl)amino]-1,2,4-triazin-6-yl}-5-(1H-pyrazolo[3,4-b]pyridin-5-yl)phenol]", "IC50": "100 to 500"}
{"smiles": "CC1(C)CC(Nc2ncc(-c3ccc(-c4cn5ccncc5n4)cc3O)nn2)CC(C)(C)N1", "note": "[Cpd 359, 5-(imidazo[1,2-a]pyrazin-2-yl)-2-{3-[(2,2,6,6-tetramethylpiperidin-4-yl)amino]-1,2,4-triazin-6-yl}phenol]", "IC50": "≤ 100"}
{"smiles": "CC1(C)CC(Nc2ncc(-c3ccc(-c4ncccn4)cc3O)nn2)CC(C)(C)N1", "note": "[Cpd 279, 5-(pyrimidin-2-yl)-2-{3-[(2,2,6,6-tetramethylpiperidin-4-yl)amino]-1,2,4-triazin-6-yl}phenol]", "IC50": "≤ 100"}
{"smiles": "CC(C)(C)NC1CN(c2ncc(-c3ccc(-c4cn[nH]c4)cc3O)nn2)CC1F", "note": "(stereo not shown) [Cpd 278, 2-{3-[3-(tert-butylamino)-4-fluoropyrrolidin-1-yl]-1,2,4-triazin-6-yl}-5-(1H-pyrazol-4-yl)phenol]", "IC50": "≤ 100"}
{"smiles": "CN(c1ncc(-c2ccc(-n3cc(O)cn3)cc2O)nn1)C1CC(C)(C)NC(C)(C)C1", "note": "[Cpd 90, 1-(3-hydroxy-4-{3-[methyl(2,2,6,6-tetramethylpiperidin-4-yl)amino]-1,2,4-triazin-6-yl}phenyl)-1H-pyrazol-4-ol]", "IC50": "≤ 100"}
{"smiles": "CN(c1ncc(-c2ccc(-c3ccc4c(c3)OCO4)cc2O)nn1)C1CC(C)(C)NC(C)(C)C1", "note": "[Cpd 188, 5-(2H-1,3-benzodioxo1-5-yl)-2-{3-[methyl(2,2,6,6-tetramethylpiperidin-4-yl)amino]-1,2,4-triazin-6-yl}phenol]", "IC50": "≤ 100"}
{"smiles": "CNC1CCN(c2ncc(-c3ccc(-c4cc(OC)ncn4)cc3O)nn2)C1", "note": "(stereo not shown) [Cpd 268, 5-(6-methoxypyrimidin-4-yl)-2-{3-[(methylamino)pyrrolidin-1-yl]-1,2,4-triazin-6-yl}phenol]", "IC50": "≤ 100"}
{"smiles": "COCC(C)NC1CCN(c2ncc(-c3ccc(-c4cn[nH]c4)cc3O)nn2)C1", "note": "(stereo not shown) [Cpd 336, 2-(3-{3-[(1-methoxypropan-2-yl)amino]pyrrolidin-1-yl}-1,2,4-triazin-6-yl)-5-(1H-pyrazol-4-yl)phenol]", "IC50": "≤ 100"}
{"smiles": "Cn1cc(-c2ccc(-c3cnc(N4CCC(CNC5CCC5)C4)nn3)c(O)c2)cn1", "note": "(stereo not shown) [Cpd 416, 2-(3-{3-[(cyclobutylamino)methyl}pyrrolidin-1-yl}-1,2,4-triazin-6-yl)-5-(1-methyl-1H-pyrazol-4-yl)phenol]", "IC50": "≤ 100"}
{"smiles": "Oc1cc(-c2cn[nH]c2)ccc1-c1cnc(N2CCC(CNCc3ccccn3)C2)nn1", "note": "(stereo not shown) [Cpd 388, 5-(1H-pyrazol-4-yl)-2-{3-[-({[(pyridin-2-yl)methyl]amino}methyl)pyrrolidin-1-yl]-1,2,4-triazin-6-yl}phenol]", "IC50": "≤ 100"}
